According to patent US20100303758A1, “Novel Glucocorticoid Receptor Agonists” (priority 2009, published 2010):

Columns and labels:
Assay type in all cases: cell-based
human GR = biological target: T1, human GR (Homo sapiens, UniProt P04150); experiment: GR agonist potency, MMTV-luciferase reporter in SW1353 cells; conditions: human chondrosarcoma cell-line SW1353 stably transfected with MMTV-luciferase reporter; approx. 18 hours; data as percentage of 1 μM dexamethasone positive control
T1 construct: SW1353 naturally expresses human GR; endogenous in cells; host or cells: human chondrosarcoma cell-line SW1353 stably transfected with an MMTV-luciferase reporter construct
T1 sequence (P04150 1-777): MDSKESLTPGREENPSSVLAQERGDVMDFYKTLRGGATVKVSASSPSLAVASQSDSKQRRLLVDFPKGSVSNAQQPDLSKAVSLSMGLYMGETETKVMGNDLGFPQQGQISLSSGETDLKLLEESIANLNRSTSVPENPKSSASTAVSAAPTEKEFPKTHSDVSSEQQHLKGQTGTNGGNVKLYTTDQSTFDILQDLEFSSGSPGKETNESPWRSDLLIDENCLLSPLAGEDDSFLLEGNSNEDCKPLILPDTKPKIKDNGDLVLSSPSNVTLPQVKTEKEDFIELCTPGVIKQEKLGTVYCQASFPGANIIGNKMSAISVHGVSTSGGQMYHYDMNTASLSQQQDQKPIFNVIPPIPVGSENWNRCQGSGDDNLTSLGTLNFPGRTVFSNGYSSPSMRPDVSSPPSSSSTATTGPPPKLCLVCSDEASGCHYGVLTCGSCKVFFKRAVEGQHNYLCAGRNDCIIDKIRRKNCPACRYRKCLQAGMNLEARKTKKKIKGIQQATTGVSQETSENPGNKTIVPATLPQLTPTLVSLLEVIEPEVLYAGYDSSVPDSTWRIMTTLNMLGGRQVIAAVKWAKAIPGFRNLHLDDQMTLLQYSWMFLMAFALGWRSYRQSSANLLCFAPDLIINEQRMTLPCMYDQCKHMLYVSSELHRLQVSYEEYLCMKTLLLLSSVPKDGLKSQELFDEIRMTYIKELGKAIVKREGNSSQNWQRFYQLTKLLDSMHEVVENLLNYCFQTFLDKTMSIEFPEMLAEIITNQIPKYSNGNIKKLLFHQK
Method in brief: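 SW1353 chondrosarcoma cells stably carrying MMTV-luciferase, endogenous GR, exposed to compound ~18 h at 37 °C. Luminescence expressed as percent of 1 μM dexamethasone response; EC50 estimated from dose-response curves.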

[1] = test system: tumour necrosis factor-α (TNF-α) release from lipopolysaccharide (LPS) stimulated isolated human peripheral mononuclear cells (PBMC); experiment: Inhibition of TNF-α release from LPS stimulated isolated human PBMC; conditions: LPS stimulated human PBMC; 1 h pre-incubation, 18 hours after LPS; TNF-α by ELISA
Method in brief: (§1)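 Human PBMC from EDTA blood of healthy donors, at 1×10^6 lymphocytes/ml in HBSS/HEPES/BSA buffer, were preincubated with compound (1% DMSO final) for 1 h at 37° C, then stimulated with LPS (added as 100 ng/ml solution) for 18 hours. Supernatant TNF-α was measured by ELISA, and IC50 was derived from dose-response curves.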

[2] = as above; conditions: Homo sapiens, PBMC, read-out: IC50 (nM) for inhibition of TNF-α release
Method in brief: as §1

**Q.** Which EC50 (human GR) does the source give for `CC12C=CC(=O)C=C1CCC1C3CCC(OC(=O)c4ccc(Sc5ccc(O)cc5)cc4)(C(=O)OCC#N)C3(C)CC(O)C12F` (stereo not drawn) [Example 18, cyanomethyl (11beta,17alpha)-9-fluoro-11-hydroxy-17-({4-[(4-hydroxyphenyl)thio]benzoyl}oxy)-3-oxoandrosta-1,4-d iene-17-carboxylate] here?
**A.** The EC50 was 34.9 nM.

**Q.** And the IC50 [1]?
**A.** The IC50 was 0.138 nM.

**Q.** What does the source list for `CC12C=CC(=O)C=C1CCC1C3CCC(OC(=O)c4ccc(Oc5ccc(Cl)c(O)c5)cc4)(C(=O)OCC#N)C3(C)CC(O)C12F` (stereo not drawn) [Example 34, cyanomethyl (11beta,17alpha)-17-{[4-(4-chloro-3-hydroxyphenoxy)-benzoyl]oxy}-9-fluoro-11-hydroxy-oxoandrosta-1,4-diene-17-carboxylate]?
**A.** EC50 (human GR): 100 nM; IC50 [1]: 0.278 nM

**Q.** What does the source list for `C[C@]12C=CC(=O)C=C1CC[C@H]1[C@@H]3CC[C@](OC(=O)c4ccc(Oc5cccc(O)c5)cc4)(C(=O)OCC#N)[C@@]3(C)C[C@H](O)[C@@]12F` [Example 17, cyanomethyl (11beta,17alpha)-9-fluoro-11-hydroxy-17-{[4-(3-hydroxyphenoxy)benzoyl]oxy}-3-oxoandrosta-1,4-diene-17-carboxylate]?
**A.** EC50 (human GR): 37.9 nM; IC50 [2]: 0.157 nM

**Q.** For `C[C@]12C=CC(=O)C=C1[C@@H](F)C[C@H]1[C@@H]3CC[C@](OC(=O)c4ccc(CSc5ccccc5)cc4)(C(=O)OCC#N)[C@@]3(C)C[C@H](O)[C@@]12F` [Example 5, cyanomethyl (6alpha,11beta,17alpha)-6,9-difluoro-11-hydroxy-3-oxo-17-({4-[(phenylthio)methyl]benzoyl}oxy)androsta-1,4-diene-17-carboxylate], which EC50 (human GR) is on record?
**A.** The EC50 was 33.3 nM.

**Q.** What about the IC50 [2] of the same molecule?
**A.** Its IC50 is 0.152 nM.

**Q.** Which EC50 (human GR) does the source give for `CSc1ccc(Oc2ccc(C(=O)O[C@]3(C(=O)OCC#N)[C@H](C)C[C@H]4[C@@H]5C[C@H](F)C6=CC(=O)C=C[C@]6(C)[C@@]5(F)[C@@H](O)C[C@@]43C)cc2)cc1` [Example 48, Cyanomethyl (6alpha,11beta,16alpha, 17alpha)-6,9-difluoro-11-hydroxy-16-methyl-17-({4-[4-(methylthio)phenoxy]benzoyl}oxy)-3-oxoandrosta-1,4-diene-17-carboxylate] here?
**A.** Its EC50 is 14.2 nM.

**Q.** And the IC50 [2]?
**A.** The IC50 was 0.09 nM.

**Q.** For `C[C@]12C=CC(=O)C=C1[C@@H](F)C[C@H]1[C@@H]3CC[C@](OC(=O)c4ccc(Oc5ccccc5)cc4)(C(=O)OCC#N)[C@@]3(C)C[C@H](O)[C@@]12F` [Example 4, cyanomethyl (6alpha,11beta,17alpha)-6,9-difluoro-11-hydroxy-3-oxo-17-[(4-phenoxybenzoyl)oxy]androsta-1,4-diene-17-carboxylate], which EC50 (human GR) is on record?
**A.** Its EC50 is 23.6 nM.

**Q.** What about the IC50 [2] of the same molecule?
**A.** The IC50 was 0.154 nM.

**Q.** Which EC50 (human GR) does the source give for `C[C@]12C=CC(=O)C=C1CC[C@H]1[C@@H]3CC[C@](OC(=O)c4ccc(Sc5ccccc5)c(O)c4)(C(=O)OCC#N)[C@@]3(C)C[C@H](O)[C@@]12F` [Example 19, cyanomethyl (11beta,17alpha)-9-fluoro-11-hydroxy-17-{[3-hydroxy-4-(phenylthio)benzoyl]oxy}-3-oxoandrosta-1,4-diene-17-carboxylate] here?
**A.** Its EC50 is 44.8 nM.

**Q.** What about the IC50 [2] of the same molecule?
**A.** Its IC50 is 0.3 nM.

**Q.** Which EC50 (human GR) does the source give for `CSc1ccc(Oc2ccc(C(=O)OC3(C(=O)OCF)C(C)CC4C5CC(F)C6=CC(=O)C=CC6(C)C5(F)C(O)CC43C)cc2)cc1` (stereo not drawn) [Example 52, Fluoromethyl (6alpha,11beta,16alpha, 17alpha)-6,9-difluoro-11-hydroxy-16-methyl-17-({4-[4-(methylthio)phenoxy]benzoyl}oxy)-3-oxoandrosta-1,4-diene-17-carboxylate] here?
**A.** The EC50 was 6.05 nM.

**Q.** What about the IC50 [1] of the same molecule?
**A.** Its IC50 is 0.033 nM.

**Q.** For `C[C@]12C=CC(=O)C=C1[C@@H](F)C[C@H]1[C@@H]3CC[C@](OC(=O)c4ccc(Sc5ccccc5)cc4)(C(=O)OCC#N)[C@@]3(C)C[C@H](O)[C@@]12F` [Example 3, cyanomethyl (6alpha,11beta,17alpha)-6,9-difluoro-11-hydroxy-3-oxo-17-{[4-(phenylthio)benzoyl]oxy}androsta-1,4-diene-17-carboxylate], which EC50 (human GR) is on record?
**A.** Its EC50 is 50.5 nM.

**Q.** What about the IC50 [2] of the same molecule?
**A.** Its IC50 is 0.143 nM.

**Q.** Which results are given for `C[C@]12C=CC(=O)C=C1CC[C@H]1[C@@H]3CC[C@](OC(=O)c4ccc(Oc5ccccc5)cc4)(C(=O)SCF)[C@@]3(C)C[C@H](O)[C@@]12F` [Example 25, (11beta, 17alpha)-9-fluoro-17-{[(fluoromethyl)thio]carbonyl}-11-hydroxy-3-oxoandrosta-1,4-dien-17-yl 4-phenoxybenzoate]?
**A.** EC50 (human GR): 19.8 nM; IC50 [2]: 0.026 nM

**Q.** For `C[C@]12C=CC(=O)C=C1CC[C@H]1[C@@H]3CC[C@](OC(=O)c4ccc(Oc5ccc(O)c(Cl)c5)cc4)(C(=O)OCC#N)[C@@]3(C)C[C@H](O)[C@@]12F` [Example 37, cyanomethyl (11beta,17alpha)-17-{[4-(3-chloro-4-hydroxybhenoxy)-benzoyl]oxy}-9-fluoro-11-hydroxy-3-oxoandrosta-1,4-diene-17-carboxylate], which EC50 (human GR) is on record?
**A.** Its EC50 is 39.7 nM.

**Q.** What about the IC50 [2] of the same molecule?
**A.** The IC50 was 0.201 nM.

**Q.** Which IC50 [1] does the source give for `CC12C=CC(=O)C=C1CCC1C3CCC(OC(=O)c4ccc(Cc5ccccc5)cc4)(C(=O)OCC#N)C3(C)CC(O)C12F` (centres unmarked) [Example 9] here?
**A.** Its IC50 is 0.21 nM.

**Q.** With `CSc1cccc(Sc2ccc(C(=O)O[C@]3(C(=O)SCF)CC[C@H]4[C@@H]5CCC6=CC(=O)C=C[C@]6(C)[C@@]5(F)[C@@H](O)C[C@@]43C)cc2)c1` [Example 23, (11beta,17alpha)-9-fluoro-17-{[(fluoromethyl)thio]carbonyl}-11-hydroxy-3-oxoandrosta-1,4-dien-17-yl 4-{[3-(methylthio)phenyl]thio}benzoate] as the molecule, how does the EC50 (human GR) read?
**A.** Its EC50 is 52.5 nM.

**Q.** What about the IC50 [2] of the same molecule?
**A.** The IC50 was 0.536 nM.

**Q.** Which results are given for `C[C@]12C=CC(=O)C=C1CC[C@H]1[C@@H]3CC[C@](OC(=O)c4ccc(Sc5ccc(Cl)c(O)c5)cc4)(C(=O)SCC#N)[C@@]3(C)C[C@H](O)[C@@]12F` [Example 38, (11beta,17alpha)-17-{[(cyanomethyl)thio]carbonyl}-9-fluoro-11-hydroxy-3-oxoandrosta-1,4-dien-17-yl 4-[(4-chloro-3-hydroxyphenyl)thio]benzoate]?
**A.** EC50 (human GR): 54.7 nM; IC50 [2]: 0.755 nM

**Q.** For `CSc1cccc(Oc2ccc(C(=O)O[C@]3(C(=O)OCF)[C@H](C)C[C@H]4[C@@H]5C[C@H](F)C6=CC(=O)C=C[C@]6(C)[C@@]5(F)[C@@H](O)C[C@@]43C)cc2)c1` [Example 51, Fluoromethyl (6alpha,11beta,16alpha, 17alpha)-6,9-difluoro-11-hydroxy-16-methyl-17-({4-[3-(methylthio)phenoxy]benzoyl}oxy)-3-oxoandrosta-1,4-diene-17-carboxylate], which EC50 (human GR) is on record?
**A.** Its EC50 is 8.7 nM.

**Q.** What about the IC50 [2] of the same molecule?
**A.** Its IC50 is 0.057 nM.
